Source: ChEMBL document CHEMBL5120953, “Novel Macrocyclic 1,3,4-Oxadiazoles as CFTR Modulators for Treating Cystic Fibrosis” (ACS Med Chem Lett, 2022)

Assay: Modulation of CFTR F508 deletion/MF mutant in HBE cells assessed as change in short circuit current incubated for 18 to 24 hrs in presence of forskolin and amiloride by voltage-clamp based chamber assay
Assay type: cell-based
Settings: Homo sapiens

EC50, < 500 nM:
Nc1cc(C(F)(F)F)c2nc1-c1nnc(o1)[C@@](O)(C(F)(F)F)CCCCC[C@@H]1CCCN21
Nc1cc(C(F)(F)F)c2nc1-c1nnc(o1)[C@@](O)(C(F)(F)F)CCCCCC(c1ccccn1)N2 (stereo partly specified)
Nc1cc(C(F)(F)F)c2nc1-c1nnc(o1)[C@@](O)(C(F)(F)F)CCCCCC1(CCCCC1)N2
Nc1cc(C(F)(F)F)c2nc1-c1nnc(o1)[C@@](O)(C(F)(F)F)CCCCCC1(CCC1)N2
Nc1cc(Br)c2nc1-c1nnc(o1)[C@@](O)(C(F)(F)F)CCCCC[C@@H]1CCCN21
Nc1cc(S(=O)(=O)c2ccccc2)c2nc1-c1nnc(o1)[C@@](O)(C(F)(F)F)CCCCC[C@@H]1CCCN21
